pIC50: −log10 of the molar value.
Test: Cytotoxicity against mouse MDR1 transfected L5178YvMDR cell line

| Compound | pIC50 |
| --- | --- |
| O=C(Oc1ccccc1)N1C2C3C4N(C(=O)Oc5ccccc5)C5C(C1[C@]5(CO)[C@H]3c1ccccc1)[C@@H](c1ccccc1)[C@@]24CO [1,7-dihydroxymethyl-6,12-diphenyl-3,9-diphenoxycarbonyl-3,9-diazahexacyclo[6.4.0.0(2.7)0(4.11)0(5.10)]dodecane] | 4.68 |
| OC[C@]12C3C4C1N(Cc1ccccc1)C1C(C(N3Cc3ccccc3)[C@]1(CO)[C@H]4c1ccccc1)[C@H]2c1ccccc1 [3,9-dibenzyl-1,7-dihydroxymethyl-6,12-diphenyl-3,9-diazahexacyclo[6.4.0.0(2.7)0(4.11)0(5.10)]dodecane] | 4.88 |
| CN1C2C3C4N(C)C5C(C1[C@]5(CO)[C@H]3c1ccccc1)[C@@H](c1ccccc1)[C@@]24CO [1,7-dihydroxymethyl-3,9-dimethyl-6,12-diphenyl-3,9-diazahexacyclo[6.4.0.0 2.7.0 4.11.0. 5.10]dodecane] | 5.12 |
| CC(C)(C)OC(=O)N1C2C3C4N(C(=O)OC(C)(C)C)C5C(C1[C@]5(CO)[C@H]3c1ccccc1)[C@@H](c1ccccc1)[C@@]24CO [3,9-di(tert.)butoxycarbonyl-1,7-dihydroxymethyl-6,12-diphenyl-3,9-diazahexacyclo[6.4.0.0(2.7)0(4.11)0(5.10)]dodecane] | 5.49 |

From BindingDB's records for doi:10.1021/jm058046w (Martin-Luther-University Halle-Wittenberg, 2006)
